This is an account of results in patent publication US4228292A, “N-Substituted benzothiazolines and benzoxazolines and their use as herbicides and plant growth regulants” (Monsanto Company, priority 1978, dated 1980).

One assay deals with soybean plants. The assay is described as follows: plant growth regulating activity on soybean plants. Format: in vivo, variety Williams. The procedure: A number of soybean plants, variety Williams, were grown from seeds in plastic pots in the greenhouse for a period of one week at which time the plants are thinned to one plant per pot. When the second trifoliate leaf (three weeks) was fully expanded, the plants were treated with a solution of the active ingredient in acetone and water. Aqueous Tween 20 was used as a surfactant.
When the fifth trifoliate leaf (four to five weeks) was fully expanded, the treated plants were compared with the non-treated control plants and the observations recorded.

For assay [1], the system named is Hemp Sesbania. The assay is described as follows: pre-emergent herbicidal test. Note: ranges in brackets are in %. In kind it is in vivo. The conditions noted are these: R. As to the method: (§1) The pre-emergent test was conducted as follows:
(§2) A good grade of top soil was placed in aluminum pans and compactd to a depth of 0.95 to 1.27 cm. from the top of the pan. On the top of the soil was placed a predetermined number of seeds or vegetative propagules of various plant species. The soil required to level fill the pans after seeding or adding vegetative propagules was weighed into a pan. A known amount of the herbicidal active ingredient applied in a solvent or as a wettable powder and the soil were thoroughly mixed, and used as a cover layer for prepared pans. After treatment the pans were moved into a greenhouse bench where they were watered from below as needed to give adequate moisture for germination and growth.
(§3) A herbicidal rating code was used to signify the extent of phytotoxicity of each species. The ratings are defined as follows: […]

The subject of assay [2] is Crabgrass. Nature of the assay: pre-emergent herbicidal test. Note: ranges in brackets are in %. Format: in vivo. The note with it: T. As to the method: as §1, §2, §3
Assay [3] concerns Sugar Beet. The assay is described as follows: pre-emergent herbicidal test. Note: ranges in brackets are in %. In kind it is in vivo. The conditions noted are these: M. As to the method: as §1, §2, §3
Assay [4] deals with Rice. Nature of the assay: pre-emergent herbicidal test. Note: ranges in brackets are in %. In kind it is in vivo. The note with it: O. The procedure: as §1, §2, §3
In assay [5] the test system is Panicum Spp. Nature of the assay: pre-emergent herbicidal test. Note: ranges in brackets are in %. Format: in vivo. The note with it: S. The procedure: as §1, §2, §3
In assay [6] the test system is Wheat. Nature of the assay: pre-emergent herbicidal test. Note: ranges in brackets are in %. In kind it is in vivo. The note with it: N. The procedure: as §1, §2, §3
Assay [7] deals with Soybean. The assay is described as follows: pre-emergent herbicidal test. Note: ranges in brackets are in %. The conditions noted are these: L. In kind it is in vivo. The procedure: as §1, §2, §3
The test system of assay [8] is Sorghum. Nature of the assay: pre-emergent herbicidal test. Note: ranges in brackets are in %. In kind it is in vivo. The note with it: P. The procedure: as §1, §2, §3
Assay [9] has as its system Wild Buckwheat. Nature of the assay: pre-emergent herbicidal test. Note: ranges in brackets are in %. In kind it is in vivo. The note with it: Q. The procedure: as §1, §2, §3
Assay [10] concerns Hemp Sesbania. Nature of the assay: post-emergent herbicidal test. Note: ranges in brackets are in %. In kind it is in vivo. The note with it: R. As to the method:
(§4) The post-emergent tests were conducted as follows:
(§5) The herbicidal active ingredients are applied in spray form to two or three-week old specimens of various plant species. The spray, a solution or wettable powder suspension containing the appropriate rate of herbicidal active ingredient to give the desired test rate and a surfactant, is applied to the plants. The treated plants are placed in a greenhouse and approximately two or four weeks later the effects are observed and recorded. The results are shown in Tables IX and X in which the post-emergent herbicidal rating code is as follows: […]

The test system of assay [11] is Crabgrass. Nature of the assay: post-emergent herbicidal test. Note: ranges in brackets are in %. Format: in vivo. The conditions noted are these: T. The procedure: as §4, §5
Assay [12] deals with Sugar Beet. The assay is described as follows: post-emergent herbicidal test. Note: ranges in brackets are in %. In kind it is in vivo. The note with it: M. As to the method: as §4, §5
The subject of assay [13] is Rice. The assay is described as follows: post-emergent herbicidal test. Note: ranges in brackets are in %. Format: in vivo. The note with it: O. As to the method: as §4, §5
Assay [14] relates to Panicum Spp. The assay is described as follows: post-emergent herbicidal test. Note: ranges in brackets are in %. In kind it is in vivo. The note with it: S. As to the method: as §4, §5
Assay [15] relates to Wheat. Nature of the assay: post-emergent herbicidal test. Note: ranges in brackets are in %. Format: in vivo. The conditions noted are these: N. As to the method:
as §4, §5

Assay [16] deals with Soybean. Nature of the assay: post-emergent herbicidal test. Note: ranges in brackets are in %. In kind it is in vivo. The note with it: L. The procedure:
as §4, §5

Assay [17] concerns Sorghum. Nature of the assay: post-emergent herbicidal test. Note: ranges in brackets are in %. Format: in vivo. The conditions noted are these: P. The procedure:
as §4, §5

Assay [18] relates to Wild Buckwheat. The assay is described as follows: post-emergent herbicidal test. Note: ranges in brackets are in %. Format: in vivo. The note with it: Q. The procedure: as §4, §5

For the compound `COC(=N)CCCn1c(=O)sc2ccccc21` [Compound 18], the “plant growth regulant observations” value with soybean plants (0.112 kg/h) and with soybean plants (0.56 kg/h) was “No response” each time.
As for `COC(=N)Cn1c(=O)sc2cc(Br)ccc21` [Compound 20], in the assay on soybean plants (0.112 kg/h), the “plant growth regulant observations” value is “Leaf alteration of new growth”.
With `COC(=N)Cn1c(=O)oc2ccccc21` [Compound 22], in the assay on soybean plants (0.56 kg/h), the “plant growth regulant observations” value is given as “Leaf alteration of new growth”.
With `COC(=N)Cn1c(=O)sc2ccccc21` [Compound 24], the pre-emergent herbicidal rating in the assay on Hemp Sesbania [1] (1.12 kg/h, 4 WAT) is reported as 1 (25-49); in the assay with Hemp Sesbania [1] (5.6 kg/h, 4 WAT), 3 (75-100); in the assay with Crabgrass [2] (1.12 kg/h, 4 WAT) it was 0 (0-24); in the assay on Crabgrass [2] (5.6 kg/h, 4 WAT) it was 1 (25-49); in the assay with Sugar Beet [3] (1.12 kg/h, 4 WAT) it was 1 (25-49); with Sugar Beet [3] (5.6 kg/h, 4 WAT), 3 (75-100). Besides, the pre-emergent herbicidal rating in the assay on Rice [4] (1.12 kg/h, 4 WAT) is given as 0 (0-24); in the assay on Rice [4] (5.6 kg/h, 4 WAT) it was 1 (25-49); with Panicum Spp [5] (1.12 kg/h, 4 WAT) it was 0 (0-24); in the assay on Panicum Spp [5] (5.6 kg/h, 4 WAT), 0 (0-24); with Wheat [6] (1.12 kg/h, 4 WAT) it was 1 (25-49); with Wheat [6] (5.6 kg/h, 4 WAT), 1 (25-49). The pre-emergent herbicidal rating is given as 2 (50-74) in the assay on Soybean [7] (1.12 kg/h, 4 WAT); 3 (75-100) in the assay on Soybean [7] (5.6 kg/h, 4 WAT); 0 (0-24) with Sorghum [8] (1.12 kg/h, 4 WAT); 0 (0-24) with Sorghum [8] (5.6 kg/h, 4 WAT); 1 (25-49) with Wild Buckwheat [9] (1.12 kg/h, 4 WAT); 3 (75-100) with Wild Buckwheat [9] (5.6 kg/h, 4 WAT). In addition, the post-emergent herbicidal rating with Hemp Sesbania [10] (0.056 kg/h, 2 WAT) was 0 (0-24); in the assay with Hemp Sesbania [10] (0.28 kg/h, 4 WAT), 1 (25-49); in the assay with Hemp Sesbania [10] (1.12 kg/h, 4 WAT), 2 (50-74); in the assay on Hemp Sesbania [10] (5.6 kg/h, 4 WAT) it was 4 (100); in the assay with Crabgrass [11] (0.056 kg/h, 2 WAT) it was 0 (0-24); in the assay with Crabgrass [11] (0.28 kg/h, 4 WAT) it was 0 (0-24). The post-emergent herbicidal rating in the assay on Crabgrass [11] (1.12 kg/h, 4 WAT) was 0 (0-24); in the assay on Crabgrass [11] (5.6 kg/h, 4 WAT), 0 (0-24); in the assay on Sugar Beet [12] (0.056 kg/h, 2 WAT), 1 (25-49); in the assay with Sugar Beet [12] (0.28 kg/h, 4 WAT), 1 (25-49); in the assay with Sugar Beet [12] (1.12 kg/h, 4 WAT) it was 2 (50-74); in the assay on Sugar Beet [12] (5.6 kg/h, 4 WAT) it was 3 (75-99). Also, the post-emergent herbicidal rating in the assay on Rice [13] (0.056 kg/h, 2 WAT) is 0 (0-24); in the assay with Rice [13] (0.28 kg/h, 4 WAT), 0 (0-24); in the assay on Rice [13] (1.12 kg/h, 4 WAT), 1 (25-49); in the assay with Rice [13] (5.6 kg/h, 4 WAT), 0 (0-24); with Panicum Spp [14] (0.056 kg/h, 2 WAT), 0 (0-24); in the assay on Panicum Spp [14] (0.28 kg/h, 4 WAT), 0 (0-24). The post-emergent herbicidal rating is on record as 0 (0-24) in the assay on Panicum Spp [14] (1.12 kg/h, 4 WAT); 0 (0-24) with Panicum Spp [14] (5.6 kg/h, 4 WAT); 0 (0-24) in the assay with Wheat [15] (0.056 kg/h, 2 WAT); 0 (0-24) in the assay with Wheat [15] (0.28 kg/h, 4 WAT); 0 (0-24) in the assay with Wheat [15] (1.12 kg/h, 4 WAT); 1 (25-49) with Wheat [15] (5.6 kg/h, 4 WAT). Further, the post-emergent herbicidal rating is recorded as 1 (25-49) in the assay with Soybean [16] (0.056 kg/h, 2 WAT); 1 (25-49) with Soybean [16] (0.28 kg/h, 4 WAT); 2 (50-74) with Soybean [16] (1.12 kg/h, 4 WAT); 2 (50-74) in the assay on Soybean [16] (5.6 kg/h, 4 WAT); 0 (0-24) in the assay on Sorghum [17] (0.056 kg/h, 2 WAT); 0 (0-24) in the assay with Sorghum [17] (0.28 kg/h, 4 WAT). Moreover, the post-emergent herbicidal rating in the assay with Sorghum [17] (1.12 kg/h, 4 WAT) was 1 (25-49); with Sorghum [17] (5.6 kg/h, 4 WAT), 1 (25-49); in the assay on Wild Buckwheat [18] (0.056 kg/h, 2 WAT) it was 1 (25-49); in the assay with Wild Buckwheat [18] (0.28 kg/h, 4 WAT), 1 (25-49); with Wild Buckwheat [18] (1.12 kg/h, 4 WAT), 4 (100); in the assay on Wild Buckwheat [18] (5.6 kg/h, 4 WAT), 4 (100).
Regarding `COC(=N)C(C)n1c(=O)sc2ccccc21` (centres unmarked) [Compound 32], the “plant growth regulant observations” value in the assay with soybean plants (0.112 kg/h) is recorded as “Inhibition of dry weight”.
With `COC(=N)Cn1c(=O)sc2cc(Br)ccc21` [Compound 33], the pre-emergent herbicidal rating with Hemp Sesbania [1] (0.28 kg/h, 2 WAT) was 0 (0-24); in the assay on Hemp Sesbania [1] (1.12 kg/h, 2 WAT), 0 (0-24); in the assay with Hemp Sesbania [1] (5.6 kg/h, 4 WAT), 0 (0-24); with Crabgrass [2] (0.28 kg/h, 2 WAT), 0 (0-24); in the assay on Crabgrass [2] (1.12 kg/h, 2 WAT), 0 (0-24); with Crabgrass [2] (5.6 kg/h, 4 WAT), 0 (0-24). The pre-emergent herbicidal rating in the assay on Sugar Beet [3] (0.28 kg/h, 2 WAT) is listed as 0 (0-24); with Sugar Beet [3] (1.12 kg/h, 2 WAT) it was 0 (0-24); in the assay with Sugar Beet [3] (5.6 kg/h, 4 WAT), 1 (25-49); with Rice [4] (0.28 kg/h, 2 WAT) it was 0 (0-24); in the assay on Rice [4] (1.12 kg/h, 2 WAT), 0 (0-24); in the assay on Rice [4] (5.6 kg/h, 4 WAT), 0 (0-24). Besides, the pre-emergent herbicidal rating in the assay on Panicum Spp [5] (0.28 kg/h, 2 WAT) is recorded as 0 (0-24); in the assay on Panicum Spp [5] (1.12 kg/h, 2 WAT) it was 0 (0-24); in the assay on Panicum Spp [5] (5.6 kg/h, 4 WAT), 0 (0-24); in the assay on Wheat [6] (0.28 kg/h, 2 WAT) it was 0 (0-24); in the assay on Wheat [6] (1.12 kg/h, 2 WAT), 0 (0-24); in the assay on Wheat [6] (5.6 kg/h, 4 WAT), 0 (0-24). In addition, the pre-emergent herbicidal rating with Soybean [7] (0.28 kg/h, 2 WAT) is on record as 0 (0-24); in the assay on Soybean [7] (1.12 kg/h, 2 WAT), 0 (0-24); in the assay on Soybean [7] (5.6 kg/h, 4 WAT) it was 1 (25-49); in the assay on Sorghum [8] (0.28 kg/h, 2 WAT) it was 0 (0-24); with Sorghum [8] (1.12 kg/h, 2 WAT), 0 (0-24); with Sorghum [8] (5.6 kg/h, 4 WAT), 0 (0-24). Further, the pre-emergent herbicidal rating in the assay with Wild Buckwheat [9] (0.28 kg/h, 2 WAT) is 0 (0-24); in the assay on Wild Buckwheat [9] (1.12 kg/h, 2 WAT), 0 (0-24); with Wild Buckwheat [9] (5.6 kg/h, 4 WAT) it was 1 (25-49). Further, the “plant growth regulant observations” value in the assay on soybean plants (0.112 kg/h) was “Inhibition of dry weight”.
Turning to `COC(=N)C(C)n1c(=O)sc2cc(Br)ccc21` (centres unmarked) [Compound 34], the “plant growth regulant observations” value with soybean plants (0.112 kg/h) is “Leaf alteration of new growth”.
For `COC(=N)Cn1c(=O)oc2ccccc21` [Compound 35], the “plant growth regulant observations” value in the assay with soybean plants (0.112 kg/h) and in the assay on soybean plants (0.56 kg/h) was “No response” throughout.
For the compound `COC(=N)CCn1c(=O)sc2cc(Br)ccc21` [Compound 36], the “plant growth regulant observations” value with soybean plants (0.112 kg/h) and with soybean plants (0.56 kg/h) was “Leaf alteration of new growth” throughout.
